Results on 29 compounds are retold here after patent US20240366598A1, “GLUCOSE-DEPENDENT INSULINOTROPIC POLYPEPTIDE RECEPTOR ANTAGONISTS AND USES THEREOF” (Pfizer Inc., priority 2023, published 2024).

The target of the experiment is T1, human Glucose-dependent Insulinotropic Polypeptide Receptor (hGIPR) (Homo sapiens, UniProt P48546).
T1 sequence (P48546 22-466): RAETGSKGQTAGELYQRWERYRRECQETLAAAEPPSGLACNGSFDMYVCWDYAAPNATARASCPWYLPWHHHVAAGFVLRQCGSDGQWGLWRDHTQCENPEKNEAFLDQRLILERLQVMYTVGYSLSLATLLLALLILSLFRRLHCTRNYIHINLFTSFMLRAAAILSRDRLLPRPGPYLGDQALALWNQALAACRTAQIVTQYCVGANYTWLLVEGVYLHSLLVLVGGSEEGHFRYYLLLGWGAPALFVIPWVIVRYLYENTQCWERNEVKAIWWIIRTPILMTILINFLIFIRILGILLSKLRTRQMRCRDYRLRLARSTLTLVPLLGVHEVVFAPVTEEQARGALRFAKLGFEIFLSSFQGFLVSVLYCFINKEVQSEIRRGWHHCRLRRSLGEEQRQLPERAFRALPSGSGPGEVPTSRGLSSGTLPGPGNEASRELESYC
Briefly: Functional in vitro GIPR antagonist potency assay (cAMP HTRF, CHO-K1 cells stably expressing hGIPR, hGIP stimulation at about EC80). The following applies: geometric mean, hGIP at estimated EC80, examples marked ^2: overall geometric mean of multiple forms (including salts) tested. The format is cell-based. An outline of the steps:
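HTRF quantification of cAMP after stimulation with hGIP at an estimated EC80 for 30 min at 37 °C. Before stimulation, hGIPR-expressing CHO-K1 cells were exposed 2 h to test compound in IBMX-containing buffer, with 0.5% DMSO final. Percent effect is referenced to agonist alone (0%) and to 80 μM of a reference antagonist (100%), and runs required the agonist concentration to fall within the on-the-day EC50–EC90.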
As for `CC(C)c1ccc(NC(=O)N2CCC[C@@H]2C(=O)Nc2ccc(-c3ccc(O)cc3F)cc2)cc1` [Example 51, (2R)-N^2-(2′-fluoro-4′-hydroxy[1,1′-biphenyl]-4-yl)-N^1-[4-(propan-2-yl)phenyl]pyrrolidine-1,2-dicarboxamide], the IC50 was 280 nM.

Turning to `Cc1cc(-c2ccc(NC(=O)[C@H]3CCCN3C(=O)Nc3ccc(C(C)C)cc3)cc2)ccc1C(N)=O` [Example 52, (2R)-N^2-(4′-carbamoyl-3′-methyl[1,1′-biphenyl]-4-yl)-N^1-[4-(propan-2-yl)phenyl]pyrrolidine-1,2-dicarboxamide], the concentration for half-maximal inhibition (IC50) was 120 nM.

For the compound `Cc1cc(-c2ccc(NC(=O)[C@H]3CCCN3C(=O)Nc3ccc(C(C)C)cc3)cc2)cc(C)c1C(=O)O` [Example 53, 3,5-dimethyl-4′-[(1-{[4-(propan-2-yl)phenyl]carbamoyl}-D-prolyl)amino][1,1′-biphenyl]-4-carboxylic acid], the IC50 is 15 nM.

Consider `CC(C)c1ccc(NC(=O)N2CCC[C@@H]2C(=O)Nc2ccc(-c3ccc(O)c(F)c3)cc2)cc1` [Example 54, (2R)-N^2-(3′-fluoro-4′-hydroxy[1,1′-biphenyl]-4-yl)-N^1-[4-(propan-2-yl)phenyl]pyrrolidine-1,2-dicarboxamide], for which the 50% inhibitory concentration (IC50) is 140 nM.

Take `O=C(O)c1ccc(-c2ccc(NC(=O)[C@H]3CCCN3C(=O)Nc3ccc(C(F)(F)F)c(Cl)c3)cc2)cn1` [Example 55, 5-{4-[(1-{[3-chloro-4-(trifluoromethyl)phenyl]carbamoyl}-D-prolyl)amino]phenyl}pyridine-2-carboxylic acid]: the IC50 is 7.6 nM.

As for `CC(C)c1ccc(NC(=O)N2CCC[C@@H]2C(=O)Nc2ccc(-c3ccc(C(=O)O)cc3F)cc2)cc1` [Example 56, 2-fluoro-4′-[(1-{[4-(propan-2-yl)phenyl]carbamoyl}-D-prolyl)amino][1,1′-biphenyl]-4-carboxylic acid], the half-maximal inhibitory concentration (IC50) was 6.3 nM.

Consider `Cc1cc(C(=O)O)ncc1-c1ccc(NC(=O)[C@H]2CCCN2C(=O)Nc2ccc(C(C)C)cc2)cc1` [Example 57, 4-methyl-5-{4-[(1-{[4-(propan-2-yl)phenyl]carbamoyl}-D-prolyl)amino]phenyl}pyridine-2-carboxylic acid], for which the concentration for half-maximal inhibition (IC50) is 65 nM.

Take `Cc1cc(-c2ccc(NC(=O)[C@H]3CCCN3C(=O)Nc3ccc(C(C)C)cc3)cc2)cnc1C(=O)O` [Example 58, 3-methyl-5-{4-[(1-{[4-(propan-2-yl)phenyl]carbamoyl}-D-prolyl)amino]phenyl}pyridine-2-carboxylic acid]: the half-maximal inhibitory concentration (IC50) was 50 nM.

Consider `O=C(O)c1ccc(-c2ccc(NC(=O)[C@H]3CCCN3C(=O)Nc3cc(Cl)cc(Cl)c3)cc2)cc1` [Example 59, 4′-({1-[(3,5-dichlorophenyl)carbamoyl]-D-prolyl}amino)[1,1′-biphenyl]-4-carboxylic acid], for which the half-maximal inhibitory concentration (IC50) was 35 nM.

For the compound `Cc1cc(C(=O)O)ccc1-c1ccc(NC(=O)[C@H]2CCCN2C(=O)Nc2ccc(C(C)C)cc2)cn1` [Example 60, 3-methyl-4-{5-[(1-{[4-(propan-2-yl)phenyl]carbamoyl}-D-prolyl)amino]pyridin-2-yl}benzoic acid], the IC50 was 21 nM.

With `CC(C)c1ccc(NC(=O)N2CCC[C@@H]2C(=O)Nc2ccc(-c3ccc(C(=O)O)cc3)cc2)nc1` [Example 61, 4′-[(1-{[5-(propan-2-yl)pyridin-2-yl]carbamoyl}-D-prolyl)amino][1,1′-biphenyl]-4-carboxylic acid], the IC50 was 150 nM.

In the case of `CC(C)c1ccc(NC(=O)N2CCC[C@@H]2C(=O)Nc2ccc(-c3ccc(C(=O)O)cc3)cc2)cn1` [Example 62, 4′-[(1-{[6-(propan-2-yl)pyridin-3-yl]carbamoyl}-D-prolyl)amino][1,1′-biphenyl]-4-carboxylic acid], the 50% inhibitory concentration (IC50) was 110 nM.

In the case of `O=C(O)c1ccc(-c2ccc(NC(=O)[C@H]3CCCN3C(=O)Nc3ccc(Br)cc3)cc2)cc1` [Example 63, 4′-({1-[(4-bromophenyl)carbamoyl]-D-prolyl}amino)[1,1′-biphenyl]-4-carboxylic acid], the 50% inhibitory concentration (IC50) is 6.2 nM.

Regarding `CC(C)c1ccc(NC(=O)N2CCC[C@@H]2C(=O)Nc2ccc(-c3ccc(C(=O)O)cc3)cc2)cc1F` [Example 64, 4′-[(1-{[3-fluoro-4-(propan-2-yl)phenyl]carbamoyl}-D-prolyl)amino][1,1′-biphenyl]-4-carboxylic acid], the IC50 was 2.9 nM.

Regarding `CC(C)c1ccc(NC(=O)N2CCC[C@@H]2C(=O)Nc2ccc(-c3ccc(C(=O)O)nc3)cc2F)cc1` [Example 65, 5-{3-fluoro-4-[(1-{[4-(propan-2-yl)phenyl]carbamoyl}-D-prolyl)amino]phenyl}pyridine-2-carboxylic acid], the half-maximal inhibitory concentration (IC50) was 13 nM.

As for `CC(C)c1ccc(NC(=O)N2CCC[C@@H]2C(=O)Nc2ccc(-c3cccc(O)c3F)cc2)cc1` [Example 66, (2R)-N^2-(2′-fluoro-3′-hydroxy[1,1′-biphenyl]-4-yl)-N^1-[4-(propan-2-yl)phenyl]pyrrolidine-1,2-dicarboxamide], the IC50 is 390 nM.

As for `Cc1cc(C(=O)O)cc(C)c1-c1ccc(NC(=O)[C@H]2CCCN2C(=O)Nc2ccc(C(C)C)cc2)cc1` [Example 67, 2,6-dimethyl-4′-[(1-{[4-(propan-2-yl)phenyl]carbamoyl}-D-prolyl)amino][1,1′-biphenyl]-4-carboxylic acid], the IC50 is 14 nM.

Consider `CC(C)c1ccc(NC(=O)N2CCC[C@@H]2C(=O)Nc2ccc(-c3ccc(C(=O)O)c(C(F)(F)F)c3)cc2)cc1` [Example 68, 4′-[(1-{[4-(propan-2-yl)phenyl]carbamoyl}-D-prolyl)amino]-3-(trifluoromethyl)[1,1′-biphenyl]-4-carboxylic acid], for which the IC50 was 38 nM.

In the case of `Cc1cc(-c2ccc(NC(=O)[C@H]3CCCN3C(=O)Nc3ccc(C(C)C)cc3)cc2)cc(F)c1C(=O)O` [Example 69, 3-fluoro-5-methyl-4′-[(1-{[4-(propan-2-yl)phenyl]carbamoyl}-D-prolyl)amino][1,1′-biphenyl]-4-carboxylic acid], the 50% inhibitory concentration (IC50) is 47 nM.

Turning to `CC(C)c1ccc(NC(=O)N2CCC[C@@H]2C(=O)Nc2ccc(-c3cc(F)c(C(=O)O)cc3Cl)cc2)cc1` [Example 70, 2-chloro-5-fluoro-4′-[(1-{[4-(propan-2-yl)phenyl]carbamoyl}-D-prolyl)amino][1,1′-biphenyl]-4-carboxylic acid], the half-maximal inhibitory concentration (IC50) was 49 nM.

As for `CC(C)c1ccc(NC(=O)N2CCC[C@@H]2C(=O)Nc2ccc(-c3ccc(C(=O)O)cc3C(C)C)cc2)cc1` [Example 71, 2-(propan-2-yl)-4′-[(1-{[4-(propan-2-yl)phenyl]carbamoyl}-D-prolyl)amino][1,1′-biphenyl]-4-carboxylic acid], the IC50 is 2.5 nM.

`O=C(O)c1ccc(-c2ccc(NC(=O)[C@H]3CCCN3C(=O)Nc3ccc(C(F)(F)F)nc3)cc2)cc1` [Example 72, 4′-[(1-{[6-(trifluoromethyl)pyridin-3-yl]carbamoyl}-D-prolyl)amino][1,1′-biphenyl]-4-carboxylic acid]: the IC50 was 69 nM.

As to `O=C(O)c1ccc(-c2ccc(NC(=O)[C@H]3CCCN3C(=O)Nc3ccc(Cl)c(Cl)c3)cc2)cc1` [Example 73, 4′-({1-[(3,4-dichlorophenyl)carbamoyl]-D-prolyl}amino)[1,1′-biphenyl]-4-carboxylic acid], the IC50 is 12 nM.

`O=C(O)c1ccc(-c2ccc(NC(=O)[C@H]3CCCN3C(=O)Nc3cccc(Cl)c3)cc2)cc1` [Example 74, 4′-({1-[(3-chlorophenyl)carbamoyl]-D-prolyl}amino)[1,1′-biphenyl]-4-carboxylic acid]: the IC50 is 82 nM.

As to `CC(C)c1ccc(NC(=O)N2CCC[C@@H]2C(=O)Nc2ccc(-c3cccc(C(=O)O)n3)c(F)c2)cc1` [Example 75, 6-{2-fluoro-4-[(1-{[4-(propan-2-yl)phenyl]carbamoyl}-D-prolyl)amino]phenyl}pyridine-2-carboxylic acid], the IC50 is 140 nM.

For `Cc1cc(NC(=O)[C@H]2CCCN2C(=O)Nc2ccc(C(C)C)cc2)ccc1-c1ccc(C(=O)O)cc1` [Example 76, 2′-methyl-4′-[(1-{[4-(propan-2-yl)phenyl]carbamoyl}-D-prolyl)amino][1,1′-biphenyl]-4-carboxylic acid], the IC50 is 9.9 nM.

In the case of `CC(C)c1ccc(NC(=O)N2CCC[C@@H]2C(=O)Nc2ccc(-c3cccc(C(=O)O)c3)cn2)cc1` [Example 77, 3-{6-[(1-{[4-(propan-2-yl)phenyl]carbamoyl}-D-prolyl)amino]pyridin-3-yl}benzoic acid], the half-maximal inhibitory concentration (IC50) is 16 nM.

As to `CC(C)c1ccc(NC(=O)N2CCC[C@@H]2C(=O)Nc2ccc(-c3cccc(C(=O)O)c3)nc2)cc1` [Example 78, 3-{5-[(1-{[4-(propan-2-yl)phenyl]carbamoyl}-D-prolyl)amino]pyridin-2-yl}benzoic acid], the IC50 was 145 nM.

Turning to `CC(C)c1ccc(NC(=O)N2CCC[C@@H]2C(=O)Nc2ccc(-c3ccc(C(=O)O)cc3Cl)cc2)cc1` [Example 79, 2-chloro-4′-[(1-{[4-(propan-2-yl)phenyl]carbamoyl}-D-prolyl)amino][1,1′-biphenyl]-4-carboxylic acid], the IC50 was 15 nM.

By IC50 is commonly meant the concentration that inhibits the measured activity by half.
